ChEMBL document CHEMBL4270599, “Synthesis of a 3'-C-ethynyl-β-d-ribofuranose purine nucleoside library: Discovery of C7-deazapurine analogs as potent antiproliferative nucleosides” (Eur J Med Chem, 2018)

Columns and labels:
Assay type in all cases: functional
KM12 = test: Growth inhibition of human KM12 cells assessed as cell growth at 10^-4 M incubated for 48 hrs by sulforhodamine B assay relative to control; conditions: KM12, 48 h, read-out: Activity
RPMI-8226 = test: Cytotoxicity against human RPMI8226 cells after 48 hrs by SRB assay; conditions: RPMI-8226, 48 h; for GI50: read-out: GI50; for CC50: read-out: LC50 (the source's name); for TGI: read-out: TGI
UACC-257 = test: Growth inhibition of human UACC257 cells assessed as cell growth at 10^-7 M incubated for 48 hrs by sulforhodamine B assay relative to control; conditions: UACC-257, 48 h, read-out: Activity
CCRF-CEM [1] = test: Growth inhibition of human CCRF-CEM cells assessed as cell growth at 10^-4 M incubated for 48 hrs by sulforhodamine B assay relative to control; conditions: read-out: Activity
MOLT-4 = test: Growth inhibition of human MOLT4 cells assessed as cell growth at 10^-5 M incubated for 48 hrs by sulforhodamine B assay relative to control; conditions: MOLT-4, 48 h, read-out: Activity
CCRF-CEM [2] = test: Cytotoxicity against human CCRF-CEM cells after 48 hrs by SRB assay; conditions: for GI50: read-out: GI50
PC-3 = test: Growth inhibition of human PC3 cells assessed as cell growth at 10^-8 M incubated for 48 hrs by sulforhodamine B assay relative to control; conditions: PC-3, 48 h, read-out: Activity
LOX IMVI = test: Growth inhibition of human LOXIMVI cells assessed as cell growth at 10^-7 M incubated for 48 hrs by sulforhodamine B assay relative to control; conditions: read-out: Activity
T47D = test: Growth inhibition of human T47D cells assessed as cell growth at 10^-7 M incubated for 48 hrs by sulforhodamine B assay relative to control; conditions: read-out: Activity
SNB-75 = test: Growth inhibition of human SNB75 cells assessed as cell growth at 10^-8 M incubated for 48 hrs by sulforhodamine B assay relative to control; conditions: SNB-75, 48 h, read-out: Activity
SR = test: Growth inhibition of human SR cells assessed as cell growth at 10^-5 M incubated for 48 hrs by sulforhodamine B assay relative to control; conditions: read-out: Activity
M14 = test: Cytotoxicity against human M14 cells after 48 hrs by SRB assay; conditions: M14, 48 h; for GI50: read-out: GI50; for CC50: read-out: LC50 (the source's name); for TGI: read-out: TGI
MDA-MB-435 [3] = test: Cytotoxicity against human MDA-MB-435 cells after 48 hrs by SRB assay; conditions: MDA-MB-435, 48 h; for GI50: read-out: GI50; for CC50: read-out: LC50 (the source's name); for TGI: read-out: TGI
Malme-3M = test: Cytotoxicity against human MALME-3M cells after 48 hrs by SRB assay; conditions: for GI50: read-out: GI50; for CC50: read-out: LC50 (the source's name); for TGI: read-out: TGI
NCI-H460 = test: Growth inhibition of human NCI-H460 cells assessed as cell growth at 10^-8 M incubated for 48 hrs by sulforhodamine B assay relative to control; conditions: NCI-H460, 48 h, read-out: Activity
MDA-MB-468 [4] = test: Growth inhibition of human MDA-MB-468 cells assessed as cell growth at 10^-8 M incubated for 48 hrs by sulforhodamine B assay relative to control; conditions: MDA-MB-468, 48 h, read-out: Activity
CCRF-CEM [5] = test: Growth inhibition of human CCRF-CEM cells assessed as cell growth at 10^-7 M incubated for 48 hrs by sulforhodamine B assay relative to control; conditions: read-out: Activity
SW-620 = test: Growth inhibition of human SW620 cells assessed as cell growth at 10^-7 M incubated for 48 hrs by sulforhodamine B assay relative to control; conditions: SW-620, 48 h, read-out: Activity
SF-268 = test: Growth inhibition of human SF268 cells assessed as cell growth at 10^-8 M incubated for 48 hrs by sulforhodamine B assay relative to control; conditions: SF-268, 48 h, read-out: Activity
MCF7 = test: Growth inhibition of human MCF7 cells assessed as cell growth at 10^-8 M incubated for 48 hrs by sulforhodamine B assay relative to control; conditions: MCF7, 48 h, read-out: Activity
NCI-H226 = test: Cytotoxicity against human NCI-H226 cells after 48 hrs by SRB assay; conditions: NCI-H226, 48 h; for GI50: read-out: GI50; for CC50: read-out: LC50 (the source's name)
OVCAR-5 [6] = test: Growth inhibition of human OVCAR5 cells assessed as cell growth at 10^-7 M incubated for 48 hrs by sulforhodamine B assay relative to control; conditions: OVCAR-5, 48 h, read-out: Activity
MDA-MB-468 [7] = test: Cytotoxicity against human MDA-MB-468 cells after 48 hrs by SRB assay; conditions: MDA-MB-468, 48 h; for GI50: read-out: GI50; for TGI: read-out: TGI
SK-OV-3 = test: Cytotoxicity against human SKOV3 cells after 48 hrs by SRB assay; conditions: SK-OV-3, 48 h; for GI50: read-out: GI50; for CC50: read-out: LC50 (the source's name); for TGI: read-out: TGI
DU-145 = test: Growth inhibition of human DU145 cells assessed as cell growth at 10^-5 M incubated for 48 hrs by sulforhodamine B assay relative to control; conditions: DU-145, 48 h, read-out: Activity
OVCAR-5 [8] = test: Growth inhibition of human OVCAR5 cells assessed as cell growth at 10^-5 M incubated for 48 hrs by sulforhodamine B assay relative to control; conditions: OVCAR-5, 48 h, read-out: Activity
OVCAR-8 = test: Cytotoxicity against human OVCAR8 cells after 48 hrs by SRB assay; conditions: OVCAR-8, 48 h; for GI50: read-out: GI50; for TGI: read-out: TGI
NCI/ADR-RES = test: Growth inhibition of human NCI/ADR-RES cells assessed as cell growth at 10^-6 M incubated for 48 hrs by sulforhodamine B assay relative to control; conditions: read-out: Activity
MDA-MB-231 = test: Growth inhibition of human MDA-MB-231 cells assessed as cell growth at 10^-5 M incubated for 48 hrs by sulforhodamine B assay relative to control; conditions: MDA-MB-231, 48 h, read-out: Activity
MDA-MB-435 [9] = test: Growth inhibition of human MDA-MB-435 cells assessed as cell growth at 10^-6 M incubated for 48 hrs by sulforhodamine B assay relative to control; conditions: MDA-MB-435, 48 h, read-out: Activity
COLO 205 = test: Growth inhibition of human COLO205 cells assessed as cell growth at 10^-5 M incubated for 48 hrs by sulforhodamine B assay relative to control; conditions: COLO 205, 48 h, read-out: Activity
[10] = read-out: LC50 (the source's name)
[11] = read-out: pLC50 (the source's name) (converted)

## C#C[C@@]1(O)[C@@H](CO)O[C@@H](n2cc(Cl)c3c(N)ncnc32)[C@@H]1O
KM12
  growth at 100 µM: 2 to 6%
RPMI-8226
  GI50: 144 to 159 nM
  CC50: > 100000 nM
  TGI: 521 to 708 nM
UACC-257
  growth at 0.1 µM: 79 to 90%
CCRF-CEM [1]
  growth at 100 µM: 2 to 5%
MOLT-4
  growth at 10 µM: 2%
CCRF-CEM [2]
  GI50: 239 to 257 nM
CCRF-CEM [2]; [10]
  CC50: > 100000 nM
CCRF-CEM [2]; read-out: TGI
  TGI: > 100000 nM
CCRF-CEM [2]; read-out: pTGI
  TGI: > 100000 nM
PC-3
  growth at 0.01 µM: 91 to 94%
LOX IMVI
  growth at 0.1 µM: 34 to 47%
T47D
  growth at 0.1 µM: 31 to 50%
SNB-75
  growth at 0.01 µM: 84%
SR
  growth at 10 µM: 1 to 5%
M14
  GI50: 157 to 200 nM
  CC50: > 100000 nM
  TGI: 520 to 659 nM
MDA-MB-435 [3]
  GI50: 132 to 208 nM
  CC50: 4670 to 100000 nM
  TGI: 520 to 10200 nM
Malme-3M
  GI50: 223 to 262 nM
  CC50: > 100000 nM
  TGI: 858 to 11800 nM
NCI-H460
  growth at 0.01 µM: 45 to 96%
MDA-MB-468 [4]
  growth at 0.01 µM: 97 to 103%
CCRF-CEM [5]
  growth at 0.1 µM: 76 to 80%
SW-620
  growth at 0.1 µM: 34 to 50%
SF-268
  growth at 0.01 µM: 82 to 88%
MCF7
  growth at 0.01 µM: 67 to 75%
NCI-H226
  GI50: 308 to 837 nM
  CC50: > 100000 nM
NCI-H226; read-out: TGI
  TGI: 901 to 100000 nM
OVCAR-5 [6]
  growth at 0.1 µM: 72 to 102%
MDA-MB-468 [7]
  GI50: 180 to 243 nM
  TGI: 451 to 751 nM
MDA-MB-468 [7]; [11]
  CC50: 2090 nM
SK-OV-3
  GI50: 119 to 171 nM
  CC50: > 100000 nM
  TGI: 467 to 573 nM
DU-145
  growth at 10 µM: 1 to 2%
OVCAR-5 [8]
  growth at 10 µM: 13 to 14%
OVCAR-8
  GI50: 10.2 to 33.6 nM
  TGI: 730 to 1480 nM
OVCAR-8; [10]
  CC50: > 100000 nM

## C#C[C@@]1(O)[C@@H](CO)O[C@@H](n2cc(I)c3c(N)ncnc32)[C@@H]1O
KM12
  growth at 100 µM: 3 to 9%
RPMI-8226
  GI50: 275 to 428 nM
  CC50: 91500 to 100000 nM
  TGI: 4570 to 6650 nM
UACC-257
  growth at 0.1 µM: 81 to 88%
CCRF-CEM [1]
  growth at 100 µM: 2 to 8%
NCI/ADR-RES
  growth at 1 µM: 4 to 7%
CCRF-CEM [2]
  GI50: 249 to 295 nM
CCRF-CEM [2]; read-out: TGI
  TGI: > 100000 nM
CCRF-CEM [2]; [11]
  CC50: > 100000 nM
CCRF-CEM [2]; read-out: pTGI
  TGI: > 100000 nM
PC-3
  growth at 0.01 µM: 81 to 84%
LOX IMVI
  growth at 0.1 µM: 27 to 46%
SNB-75
  growth at 0.01 µM: 74 to 83%
M14
  GI50: 393 to 611 nM
  CC50: 55500 to 100000 nM
  TGI: 8470 to 10700 nM
MDA-MB-435 [3]
  GI50: 320 to 699 nM
  CC50: > 100000 nM
  TGI: 11700 to 14000 nM
Malme-3M
  GI50: 525 to 1300 nM
  CC50: > 100000 nM
  TGI: 2760 to 4160 nM
MDA-MB-231
  growth at 10 µM: 10 to 12%
NCI-H460
  growth at 0.01 µM: 91 to 92%
MDA-MB-468 [4]
  growth at 0.01 µM: 81 to 93%
MDA-MB-435 [9]
  growth at 1 µM: 34 to 46%
CCRF-CEM [5]
  growth at 0.1 µM: 72 to 74%
SW-620
  growth at 0.1 µM: 39%
SF-268
  growth at 0.01 µM: 92%
MCF7
  growth at 0.01 µM: 35 to 54%
NCI-H226
  GI50: 1350 to 2180 nM
  CC50: > 100000 nM
NCI-H226; read-out: TGI
  TGI: > 100000 nM
NCI-H226; read-out: pTGI (converted)
  TGI: > 100000 nM
COLO 205
  growth at 10 µM: -62%
OVCAR-5 [6]
  growth at 0.1 µM: 67 to 75%
MDA-MB-468 [7]
  GI50: 147 to 158 nM
  TGI: 421 to 746 nM
MDA-MB-468 [7]; [10]
  CC50: 5510 to 5650 nM
SK-OV-3
  GI50: 19.4 to 60.4 nM
  CC50: > 100000 nM
  TGI: 469 to 1130 nM
DU-145
  growth at 10 µM: 8 to 11%
OVCAR-5 [8]
  growth at 10 µM: 2 to 6%
OVCAR-8
  GI50: 42.3 to 49 nM
  TGI: 1460 to 100000 nM
OVCAR-8; [11]
  CC50: > 100000 nM
